The results in this text go back to patent US20200069691A1, “HETEROCYCLIC COMPOUNDS AS HIV PROTEASE INHIBITORS” (Merck Sharp & Dohme Corp., priority 2016, published 2020).

pIC50: −log10 of the molar value.

For the test, the target named is T1, wild-type HIV-1 protease (Human immunodeficiency virus type 1 group M subtype B, UniProt P04585).
T1 construct: Escherichia coli expressed wild-type HIV-1 protease protein
The test is described as follows: Assay for Inhibition of Microbial Expressed HIV Protease (peptide substrate cleavage, LC-MS/MS readout). The format is biochemical. The note with it: E. coli expressed wild-type HIV-1 protease, mean of at least two independent experiments, read-out: HIV Pr Enzyme HIV1 PR IC50. A digest of the protocol:
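E. coli-expressed wild-type HIV-1 protease ([…]) was preincubated with inhibitor 30 min at room temperature in pH 5.5 acetate buffer (100 mM NaCl, 0.1% BSA). Then 400 μM octapeptide substrate was added and reacted 1 h at 30 °C; inhibition came from LC-MS/MS product peak areas, mean of ≥2 experiments.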
In the case of `N=C1NC(c2ccccc2)(c2ccccc2)C(=O)N1Cc1cccc(C(=O)N2CCC(Oc3ccccc3)CC2)c1` [Compound 333, 2-imino-3-{3-[(4-phenoxypiperidin-1-yl)carbonyl]benzyl}-5,5-diphenylimidazolidin-4-one], the negative-log IC50 (pIC50) is 7.16.

On to `CC(C)CCC1(c2ccc(F)cc2)NC(=N)N(Cc2ccc(C(F)(F)F)c(C(=O)N3Cc4nccnc4C3)c2)C1=O` (centres unmarked) [Compound 168, 3-[3-(5,7-dihydro-6H-pyrrolo[3,4-b]pyrazin-6-ylcarbonyl)-4-(trifluoromethyl)benzyl]-5-(4-fluorophenyl)-2-imino-5-(3-methylbutyl)imidazolidin-4-one], for which the negative-log IC50 (pIC50) is 7.41.

Regarding `N=C1N[C@](C[C@@H]2CCOC2)(c2ccccc2)C(=O)N1Cc1ccc(C(F)(F)F)c(C(=O)N2Cc3nccnc3C2)c1` [Compound 70, (5R)-3-[3-(5,7-dihydro-6H-pyrrolo[3,4-b]pyrazin-6-ylcarbonyl)-4-(trifluoromethyl)-benzyl]-2-imino-5-phenyl-5-[(3R)-tetrahydrofuran-3-ylmethyl]imidazolidin-4-one], the pIC50 is 8.05.

Turning to `CC(C)CC[C@]1(c2ccccc2)NC(=N)N(C(CC(C)C)c2ccc(C(F)(F)F)c(C(=O)N3Cc4nccnc4C3)c2)C1=O` (stereo partly drawn) [Compound 31, (5R)-3-{1-[3-(5,7-dihydro-6H-pyrrolo[3,4-b]pyrazin-6-ylcarbonyl)-4-(trifluoromethyl)-phenyl]-3-methylbutyl}-2-imino-5-(3-methylbutyl)-5-phenylimidazolidin-4-one], the negative logarithm of the IC50 (pIC50) was 8.50.

For the molecule `N#Cc1ncc2c(n1)CN(C(=O)c1cc(CN3C(=N)NC(c4ccccc4)(c4ccccc4)C3=O)ccc1F)C2` [Compound 384, 6-({2-fluoro-5-[(2-imino-5-oxo-4,4-diphenylimidazolidin-1-yl)methyl]phenyl}carbonyl)-6,7-dihydro-5H-pyrrolo[3,4-d]pyrimidine-2-carbonitrile], the pIC50 is 7.67.

For the molecule `N=C1N[C@](CCC2CC2)(c2ccc(F)cc2)C(=O)N1[C@@H]1CCCCc2ccc(C(=O)N3Cc4nccnc4C3)cc21` [Compound 93, (5R)-5-(2-cyclopropylethyl)-3-[(5R)-3-(5,7-dihydro-6H-pyrrolo-[3,4-b]pyrazin-6-ylcarbonyl)-6,7,8,9-tetrahydro-5H-benzo-[7]annulen-5-yl]-5-(4-fluoro-phenyl)-2-iminoimidazolidin-4-one], the negative-log IC50 (pIC50) is 7.73.

In the case of `N=C1NC(c2ccc(F)cc2)(c2ccc(F)cc2)C(=O)N1Cc1cccc(C(=O)N2Cc3cc(Cl)c(Cl)cc3C2)c1` [Compound 286, 3-{3-[(5,6-dichloro-1,3-dihydro-2H-isoindol-2-yl)carbonyl]benzyl}-5,5-bis(4-fluorophenyl)-2-iminoimidazolidin-4-one], the pIC50 was 7.47.

Consider `CC(C)CC[C@]1(c2ccccc2)NC(=N)N(Cc2ccc(S(C)(=O)=O)c(C(=O)N3Cc4nccnc4C3)c2)C1=O` [Compound 126, (5R)-3-[3-(5,7-dihydro-6H-pyrrolo[3,4-b]pyrazin-6-ylcarbonyl)-4-(methylsulfonyl)-benzyl]-2-imino-5-(3-methylbutyl)-5-phenylimidazolidin-4-one], for which the negative-log IC50 (pIC50) was 7.22.

For the molecule `COC(=O)N1CCN(C(=O)c2cccc(CN3C(=N)NC(CCC(C)C)(c4ccccc4)C3=O)c2)CC1` (centres unmarked) [Compound 255, methyl 4-[(3-{[2-imino-4-(3-methylbutyl)-5-oxo-4-phenylimidazolidin-1-yl]methyl}phenyl)carbonyl] piperazine-1-carboxylate], the negative-log IC50 (pIC50) is 7.68.

On to `N=C1N[C@](CCCC(F)(F)F)(c2ccc(F)cc2)C(=O)N1Cc1ccc(C(F)(F)F)c(C(=O)N2CCN(c3cncnc3)CC2)c1` [Compound 88, (5R)-5-(4-fluorophenyl)-2-imino-3-{3-[(4-pyrimidin-5-ylpiperazin-1-yl)carbonyl]-4-(trifluoromethyl)-benzyl}-5-(4,4,4-trifluorobutyl)-imidazolidin-4-one], for which the pIC50 is 7.82.

In the case of `N#Cc1ncc2c(n1)CN(C(=O)c1ccnc(CN3C(=N)NC(c4ccccc4)(c4ccccc4)C3=O)c1)C2` [Compound 397, 6-({2-[(2-imino-5-oxo-4,4-diphenylimidazolidin-1-yl)methyl]pyridin-4-yl}carbonyl)-6,7-dihydro-5H-pyrrolo[3,4-d]pyrimidine-2-carbonitrile], the pIC50 is 7.74.

Regarding `N=C1NC(c2ccc(F)cc2)(c2ccc(F)cc2)C(=O)N1Cc1ccc(Cl)c(C(=O)N2Cc3ccccc3C2)c1` [Compound 375, 3-[4-chloro-3-(1,3-dihydro-2H-isoindol-2-ylcarbonyl)benzyl]-5,5-bis(4-fluorophenyl)-2-iminoimidazolidin-4-one], the pIC50 was 8.12.

Take `CC(C)CC1(c2cccc(F)c2)NC(=N)N(Cc2cccc(C(=O)N3Cc4nccnc4C3)c2)C1=O` (centres unmarked) [Compound 210, 3-[3-(5,7-dihydro-6H-pyrrolo[3,4-b]pyrazin-6-ylcarbonyl)benzyl]-5-(3-fluorophenyl)-2-imino-5-(2-methylpropyl)imidazolidin-4-one]: the pIC50 was 8.04.

With `CC(C)CCC1(c2ccccc2)NC(=N)N(Cc2cccc(C(=O)N3Cc4cncnc4C3)c2)C1=O` (centres unmarked) [Compound 227, 3-[3-(5,7-dihydro-6H-pyrrolo[3,4-d]pyrimidin-6-ylcarbonyl)benzyl]-2-imino-5-(3-methylbutyl)-5-phenylimidazolidin-4-one], the pIC50 is 7.90.

As to `COC(=O)N1CCN(C(=O)c2cc(CN3C(=N)NC(c4ccc(F)cc4)(c4ccc(F)cc4)C3=O)ccc2Cl)CC1` [Compound 381, methyl 4-[(5-{[4,4-bis(4-fluorophenyl)-2-imino-5-oxoimidazolidin-1-yl]methyl}-2-chlorophenyl)carbonyl] piperazine-1-carboxylate], the negative-log IC50 (pIC50) was 7.91.

On to `Cn1ccc2c(-c3ncc4c(n3)CN(C(=O)c3cc(CN5C(=N)N[C@](CCCC(F)(F)F)(c6ccc(F)cc6)C5=O)ccc3C(F)(F)F)C4)cccc21` [Compound 41, (5R)-5-(4-fluorophenyl)-2-imino-3-[3-{[2-(1-methyl-1H-indol-4-yl)-5,7-dihydro-6H-pyrrolo[3,4-d]pyrimidin-6-yl]carbonyl}-4-(trifluoromethyl)benzyl]-5-(4,4,4-trifluorobutyl)imidazolidin-4-one], for which the pIC50 was 8.37.

For the molecule `Cn1ncc2c1CN(C(=O)c1cccc(CN3C(=N)NC(c4ccccc4)(c4ccccc4)C3=O)c1)C2` [Compound 241, 2-imino-3-{3-[(1-methyl-4,6-dihydropyrrolo [3,4-c]pyrazol-5(1H)-yl)carbonyl]benzyl}-5,5-diphenylimidazolidin-4-one], the pIC50 is 7.81.

On to `CC(C)CCC1(c2ccc(F)cc2)NC(=N)N(Cc2ccc(C(F)(F)F)c(C(=O)N3CCc4c(cnn4-c4ccccc4)C3)c2)C1=O` (centres unmarked) [Compound 164, 5-(4-fluorophenyl)-2-imino-5-(3-methylbutyl)-3-{3-[(1-phenyl-1,4,6,7-tetrahydro-5H-pyrazolo[4,3-c]pyridin-5-yl)carbonyl]-4-(trifluoromethyl)benzyl} imidazolidin-4-one], for which the pIC50 is 7.47.

In the case of `N=C1NC(c2ccc(F)cc2)(c2ccc(F)cc2)C(=O)N1Cc1cccc(C(=O)N2Cc3ccccc3C2)c1` [Compound 195, 3-[3-(1,3-dihydro-2H-isoindol-2-ylcarbonyl)benzyl]-5,5-bis(4-fluorophenyl)-2-iminoimidazolidin-4-one], the pIC50 was 7.24.

With `CC1(C)CCN(C(=O)c2cc(CN3C(=N)NC(c4ccc(F)cc4)(c4ccc(F)cc4)C3=O)ccc2C(F)(F)F)C1` [Compound 181, 3-{3-[(3,3-dimethylpyrrolidin-1-yl)carbonyl]-4-(trifluoromethyl)benzyl}-5,5-bis(4-fluorophenyl)-2-iminoimidazolidin-4-one], the pIC50 was 7.05.

On to `CN1CCN(c2cncc(-c3ncc4c(n3)CN(C(=O)c3cc(CN5C(=N)N[C@](CCCC(F)(F)F)(c6ccc(F)cc6)C5=O)ccc3C(F)(F)F)C4)c2)CC1` [Compound 25, (5R)-5-(4-fluorophenyl)-2-imino-3-[3-({2-[5-(4-methylpiperazin-1-yl)pyridin-3-yl]-5,7-dihydro-6H-pyirolo[3,4-d]pyrimidin-6-yl}carbonyl)-4-(trifluoromethyl)benzyl]-5-(4,4,4-trifluorobutyl)imidazolidin-4-one], for which the pIC50 was 8.59.

For `N=C1NC(c2ccccc2)(c2ccccc2)C(=O)N1Cc1cccc(C(=O)N2CCc3ccc(F)cc3C2)c1` [Compound 269, 3-{3-[(7-fluoro-3,4-dihydroisoquinolin-2(1H)-yl)carbonyl]benzyl}-2-imino-5,5-diphenylimidazolidin-4-one], the pIC50 was 7.57.

For the molecule `CN1CCN(C(=O)c2cc(CN3C(=N)NC(c4ccc(F)cc4)(c4ccc(F)cc4)C3=O)ccc2C(F)(F)F)CC1=O` [Compound 157, 4-{[5-{[4,4-bis(4-fluorophenyl)-2-imino-5-oxoimidazolidin-1-yl]methyl}-2-(trifluoromethyl)phenyl]carbonyl}-1-methylpiperazin-2-one], the negative logarithm of the IC50 (pIC50) is 7.85.

As to `CCCC1(c2ccccc2)NC(=N)N(Cc2cccc(C(=O)N3Cc4cnc(C#N)nc4C3)c2)C1=O` (centres unmarked) [Compound 243, 6-({3-[(2-imino-5-oxo-4-phenyl-4-propylimidazolidin-1-yl)methyl]phenyl}carbonyl)-6,7-dihydro-5H-pyrrolo[3,4-d]pyrimidine-2-carbonitrile], the negative-log IC50 (pIC50) is 7.78.

Consider `N=C1NC(c2ccc(F)cc2)(c2ccc(F)cc2)C(=O)N1Cc1ccc(C(F)(F)F)c(C(=O)N2CCC2)c1` [Compound 173, 3-[3-(azetidin-1-ylcarbonyl)-4-(trifluoromethyl)benzyl]-5,5-bis(4-fluorophenyl)-2-iminoimidazolidin-4-one], for which the negative logarithm of the IC50 (pIC50) was 7.27.

For the molecule `N=C1NC(c2ccccc2)(c2ccc(Br)cc2)C(=O)N1Cc1cccc(C(=O)N2Cc3ccccc3C2)c1` (centres unmarked) [Compound 213, 5-(4-bromophenyl)-3-[3-(1,3-dihydro-2H-isoindol-2-ylcarbonyl)benzyl]-2-imino-5-phenylimidazolidin-4-one], the pIC50 was 8.01.
